The supplement of paper PMC10307832

Compound: Cc1nc(NC(=O)N2CCC[C@H]2C(N)=O)sc1-c1ccnc(C(C)(C)C(F)(F)F)c1 [Alpelisib] + CS(=O)(=O)CCNCc1ccc(-c2ccc3ncnc(Nc4ccc(OCc5cccc(F)c5)c(Cl)c4)c3c2)o1 [Lapatinib] (partner 2 µM)
Test: relative viability (nuclei count vs DMSO), 5 days (fraction); higher = more cells survive
Settings: first compound 0.04 µM
Outline: (§1)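 Nuclei were stained with Hoechst during a one-step fixation (final 0.05% Triton X-100, 1% formaldehyde, 1 ug/ml Hoechst) carried out 5 days after dosing, then counted on 4× images. The cells, lung cancer lines in 1536-well plates, had been dosed by pin tool the day after seeding with one drug alone or a fixed anchor-drug dose plus five library-drug doses (not always all listed) in √10 steps. Relative viability is the nuclei count in treated wells divided by that in vehicle wells, and each value is the median of duplicate plates.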

Cell Line	relative viability
SW 1573	1.06
LK-2	0.871
NCI-H2405	1.07
NCI-H1703	0.949
NCI-H1993	0.775
NCI-H1355	0.963
HCC-366	1.04
NCI-H1915	1.01
NCI-H838	0.877
Calu-6	1.1
NCI-H1563	0.873
NCI-H1792	0.923
EBC-1	0.21
A549	0.915
IA-LM	0.977
HCC-78	0.619

Same assay, conditions: first compound 0.1265 µM

Cell Line	relative viability
NCI-H2126	0.704
EPLC-272H	0.842
NCI-H1755	0.962
NCI-H2023	0.617
NCI-H1650	0.738
NCI-H1793	0.642
H3255	0.215
NCI-H1975	0.862
PC-14	0.401
NCI-H1299	0.981
NCI-H1437	0.91
HOP-62	0.775
HCC-44	1.02
BEN	0.618
LOU-NH91	0.597
NCI-H661	0.475
NCI-H1651	0.803

Cell Line	relative viability
PC-3 [JPC-3]	0.555
SW 1573	1.06
LK-2	0.763
NCI-H2405	0.945
NCI-H1703	0.886
NCI-H1993	0.676
NCI-H1355	0.961
HCC-366	1.02
NCI-H1915	0.979
NCI-H838	1.03
Calu-6	1.09
NCI-H1563	0.941
NCI-H1792	0.796
EBC-1	0.184
A549	0.857
IA-LM	0.802
HCC-78	0.39

Same assay, conditions: first compound 0.4 µM

Cell Line	relative viability
NCI-H2126	0.701
EPLC-272H	0.805
NCI-H1755	1.11
NCI-H2023	0.312
NCI-H1650	0.806
NCI-H1793	0.637
H3255	0.259
NCI-H1975	0.889
PC-14	0.301
NCI-H1299	0.997
NCI-H1437	0.772
HOP-62	1.02
HCC-44	1.05
BEN	0.88
LOU-NH91	0.632
NCI-H661	0.525
NCI-H1651	0.943

Cell Line	relative viability
PC-3 [JPC-3]	0.404
SW 1573	1.06
LK-2	0.768
NCI-H2405	1.18
NCI-H1703	0.789
NCI-H1993	0.913
NCI-H1355	0.985
HCC-366	1.14
NCI-H1915	0.957
NCI-H838	1.01
Calu-6	1.12
NCI-H1563	1.03
NCI-H1792	0.863
EBC-1	0.211
A549	0.866
IA-LM	0.842
HCC-78	1.07

Same assay, conditions: first compound 1.265 µM

Cell Line	relative viability
NCI-H2126	0.567
EPLC-272H	0.7
NCI-H1755	0.911
NCI-H2023	0.58
NCI-H1650	0.62
NCI-H1793	0.513
H3255	0.203
NCI-H1975	0.619
PC-14	0.265
NCI-H1299	1.03
NCI-H1437	0.616
HOP-62	0.826
HCC-44	0.877
BEN	0.688
LOU-NH91	0.511
NCI-H661	0.383
NCI-H1651	0.646

Cell Line	relative viability
PC-3 [JPC-3]	0.424
SW 1573	1.09
LK-2	0.474
NCI-H2405	0.783
NCI-H1703	0.526
NCI-H1993	0.774
NCI-H1355	0.918
HCC-366	0.824
NCI-H1915	0.949
NCI-H838	0.774
Calu-6	0.996
NCI-H1563	0.857
NCI-H1792	0.773
EBC-1	0.238
A549	0.637
IA-LM	0.708
HCC-78	0.659

Same assay, conditions: first compound 4 µM

Cell Line	relative viability
NCI-H2126	0.499
EPLC-272H	0.525
NCI-H1755	0.851
NCI-H2023	0.495
NCI-H1650	0.794
NCI-H1793	0.613
H3255	0.197
NCI-H1975	0.483
PC-14	0.235
NCI-H1299	1.02
NCI-H1437	0.602
HOP-62	0.794
HCC-44	0.893
BEN	0.708
LOU-NH91	0.522
NCI-H661	0.361
NCI-H1651	0.618

Cell Line	relative viability
PC-3 [JPC-3]	0.394
SW 1573	0.873
LK-2	0.564
NCI-H2405	0.781
NCI-H1703	0.678
NCI-H1993	0.711
NCI-H1355	0.806
HCC-366	0.535
NCI-H1915	0.944
NCI-H838	0.696
Calu-6	0.952
NCI-H1563	0.868
NCI-H1792	0.532
EBC-1	0.232
A549	0.53
IA-LM	0.74
HCC-78	0.413

Compound: COc1cccc2cc(-c3nc([C@H]4CC[C@H](C(=O)O)CC4)n4ncnc(N)c34)[nH]c12 [OSI-027] + CCNC(=O)c1noc(-c2cc(C(C)C)c(O)cc2O)c1-c1ccc(CN2CCOCC2)cc1 [Luminespib] (partner 0.01 µM)
Test: as above
Settings: first compound 0.01 µM
Outline: as §1

Cell Line	relative viability
NCI-H2126	0.93
EPLC-272H	0.38
NCI-H1755	0.577
NCI-H2023	0.812
NCI-H1623	0.511
NCI-H1650	0.208
NCI-H1793	0.162
NCI-H2342	0.783
H3255	0.74
NCI-H1975	0.232
PC-14	0.146
NCI-H1437	1.08
HOP-62	0.954
HCC-44	1.33
BEN	0.327
LOU-NH91	0.312

Cell Line	relative viability
NCI-H661	0.894
NCI-H1651	0.866
PC-3 [JPC-3]	0.839
SW 1573	0.235
LK-2	0.172
NCI-H2405	0.678
NCI-H1993	0.815
ChaGo-K-1	0.574
NCI-H1355	0.604
NCI-H1915	1.04
NCI-H838	0.281
LCLC-103H	1.03
NCI-H522	1.2
NCI-H1563	0.479
NCI-H1792	0.737
NCI-H441	0.367

Same assay, conditions: first compound 0.03162 µM

Cell Line	relative viability
NCI-H2126	1.01
EPLC-272H	0.267
NCI-H1755	0.533
NCI-H2023	0.59
NCI-H1623	0.423
NCI-H1650	0.234
NCI-H1793	0.188
NCI-H2342	0.616
H3255	0.871
NCI-H1975	0.195
PC-14	0.108
NCI-H1437	1.12
HOP-62	0.904
HCC-44	0.89
BEN	0.467
LOU-NH91	0.308
NCI-H661	0.977

Cell Line	relative viability
NCI-H1651	0.691
PC-3 [JPC-3]	0.553
SW 1573	0.19
LK-2	0.193
NCI-H2405	0.647
NCI-H1993	0.795
ChaGo-K-1	0.648
NCI-H1355	0.582
NCI-H1915	0.972
NCI-H838	0.338
LCLC-103H	0.994
NCI-H522	1.25
NCI-H1563	0.479
NCI-H1792	0.268
SW 900	0.153
NCI-H441	0.393

Same assay, conditions: first compound 0.1 µM

Cell Line	relative viability
NCI-H2126	0.85
EPLC-272H	0.147
NCI-H1755	0.369
NCI-H2023	0.646
NCI-H1623	0.322
NCI-H1650	0.208
NCI-H1793	0.168
NCI-H2342	0.82
H3255	0.775
NCI-H1975	0.157
PC-14	0.126
NCI-H1437	1.16
HOP-62	0.957
HCC-44	0.903
BEN	0.307
LOU-NH91	0.333
NCI-H661	0.846

Cell Line	relative viability
NCI-H1651	1.08
PC-3 [JPC-3]	0.661
SW 1573	0.184
LK-2	0.159
NCI-H2405	0.559
NCI-H1993	0.71
ChaGo-K-1	0.586
NCI-H1355	0.589
NCI-H1915	0.862
NCI-H838	0.336
LCLC-103H	0.908
NCI-H522	1.19
NCI-H1563	0.455
NCI-H1792	0.37
SW 900	0.169
NCI-H441	0.307

Same assay, conditions: first compound 0.3162 µM

Cell Line	relative viability
NCI-H2126	0.575
EPLC-272H	0.2
NCI-H1755	0.382
NCI-H2023	0.709
NCI-H1623	0.323
NCI-H1650	0.214
NCI-H1793	0.132
NCI-H2342	0.617
H3255	0.817
NCI-H1975	0.121
PC-14	0.17
NCI-H1437	1.14
HOP-62	0.926
HCC-44	0.759
BEN	0.187
LOU-NH91	0.306
NCI-H661	0.917

Cell Line	relative viability
NCI-H1651	0.79
PC-3 [JPC-3]	0.598
SW 1573	0.214
LK-2	0.173
NCI-H2405	0.479
NCI-H1993	0.498
ChaGo-K-1	0.355
NCI-H1355	0.416
NCI-H1915	0.687
NCI-H838	0.192
LCLC-103H	0.85
NCI-H522	0.698
NCI-H1563	0.517
NCI-H1792	0.422
SW 900	0.171
NCI-H441	0.235

Same assay, conditions: first compound 1 µM

Cell Line	relative viability
NCI-H2126	0.547
EPLC-272H	0.228
NCI-H1755	0.416
NCI-H2023	0.27
NCI-H1623	0.202
NCI-H1650	0.219
NCI-H1793	0.168
NCI-H2342	0.514
H3255	0.459
NCI-H1975	0.187
PC-14	0.17
NCI-H1437	0.806
HOP-62	0.363
HCC-44	0.512
BEN	0.221
LOU-NH91	0.315
NCI-H661	0.409

Cell Line	relative viability
NCI-H1651	0.725
PC-3 [JPC-3]	0.332
SW 1573	0.13
LK-2	0.137
NCI-H2405	0.443
NCI-H1993	0.548
ChaGo-K-1	0.31
NCI-H1355	0.406
NCI-H1915	0.562
NCI-H838	0.195
LCLC-103H	0.504
NCI-H522	0.58
NCI-H1563	0.481
NCI-H1792	0.18
SW 900	0.163
NCI-H441	0.236
